In US11091478B2 (Fochon Pharmaceuticals, Ltd., priority 2017, dated 2021):

Columns and labels:
DOHH2 cells = assay: Cell proliferation assay (MTS), DOHH2 cells, 120 h; assay type: cell-based; details: Homo sapiens, DOHH-2, 120 h
Summary of the method: (§1)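 Treatment lasts 72 h for RS4;11 and 120 h for DOHH2 cells seeded at 5000 per well in serum-containing RPMI-1640. A 2 h MTS step, halted with 10% SDS, precedes dual-wavelength absorbance reading and IC50 fitting.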

RS4;11 cells = assay: Cell proliferation assay (MTS), RS4;11 cells, 72 h; assay type: cell-based; details: Homo sapiens, RS4-11, 72 h
Summary of the method: as §1

Structure (SMILES)	IC50 (DOHH2 cells)	IC50 (RS4;11 cells)
CC1(C)CCC(CN2CCN(c3ccc(C(=O)NS(=O)(=O)c4cc5c(c([N+](=O)[O-])c4)N[C@@H](CS(C)(=O)=O)CO5)c(Oc4cnc5[nH]ccc5c4)c3)CC2)=C(c2ccc(Cl)cc2)C1 [Example 2-147, (R)-2-((1H-pyrrolo[2,3-b]pyridin-5-yl)oxy)-4-(4-((4′-chloro-5,5-dimethyl-3,4,5,6-tetra-hydro-[1,1′-biphenyl]-2-yl)methyl)piperazin-1-yl)-N-((3-((methylsulfonyl)methyl)-5-nitro-3,4-dihdyro-2H-benzo[b][1,4]oxazin-7-yl)sulfonyl)benzamide]	135 nM	16 nM
CC1(C)CCC(CN2CCN(c3ccc(C(=O)NS(=O)(=O)c4cc5c(c([N+](=O)[O-])c4)N[C@H](CN4CCS(=O)(=O)CC4)CO5)c(Oc4cnc5[nH]ccc5c4)c3)CC2)=C(c2ccc(Cl)cc2)C1 [Example 2-149, (R)-2-((1H-pyrrolo[2,3-b]pyridin-5-yl)oxy)-4-(4-((4′-chloro-5,5-dimethyl-3,4,5,6-tetra-hydro-[1,1′-biphenyl]-2-yl)methyl)piperazin-1-yl)-N-((3-((1,1-dioxidothiomorpholino)methyl)-5-nitro-3,4-dihydro-2H-benzo[b] [1,4]oxazin-7-yl)sulfonyl)benzamide]	247 nM	50 nM
CC1(C)CCC(CN2CCN(c3ccc(C(=O)NS(=O)(=O)c4cc5c(c([N+](=O)[O-])c4)N[C@H](CN4CCC(N=S(C)(C)=O)CC4)CO5)c(Oc4cnc5[nH]ccc5c4)c3)CC2)=C(c2ccc(Cl)cc2)C1 [Example 2-150]	67 nM	45 nM
CC1(C)CCC(CN2CCN(c3ccc(C(=O)NS(=O)(=O)c4cc5c(c([N+](=O)[O-])c4)N[C@H](CN4CCC(NS(C)(=O)=O)CC4)CO5)c(Oc4cnc5[nH]ccc5c4)c3)CC2)=C(c2ccc(Cl)cc2)C1 [Example 2-151, (R)-2-((1H-pyrrolo[2,3-b]pyridin-5-yl)oxy)-4-(4-((4′-chloro-5,5-dimethyl-3,4,5,6-tetra-hydro-[1,1′-biphenyl]-2-yl)methyl)piperazin-1-yl)-N-((3-((4-(methylsulfonamido)pi-peridin-1-yl)methyl)-5-nitro-3,4-dihydro-2H-benzo[b][1,4]oxazin-7-yl)sulfonyl)benzamide]	2 nM	1 nM
COC(=O)NC1CCN(C[C@@H]2COc3cc(S(=O)(=O)NC(=O)c4ccc(N5CCN(CC6=C(c7ccc(Cl)cc7)CC(C)(C)CC6)CC5)cc4Oc4cnc5[nH]ccc5c4)cc([N+](=O)[O-])c3N2)CC1 [Example 2-152, methyl (R)-(1-((7-(N-(2-((1H-pyrrolo[2,3-b]pyridin-5-yl)oxy)-4-(4-((4′-chloro-5,5-dimethyl-3,4,5,6-tetrahydro-[1,1′-biphenyl]-2-yl)meth-yl)piperazin-1-yl)benzoyl)sulfamoyl)-5-nitro-3,4-dihydro-2H-benzo[b][1,4]oxazin-3-yl)methyl)piperidin-4-yl)carbamate]	1 nM	1 nM
CC1(C)CCC(CN2CCN(c3ccc(C(=O)NS(=O)(=O)c4cc5c(c([N+](=O)[O-])c4)N[C@@H](CCN4CCS(=O)(=O)CC4)CO5)c(Oc4cnc5[nH]ccc5c4)c3)CC2)=C(c2ccc(Cl)cc2)C1 [Example 2-153, (S)-2-((1H-pyrrolo[2,3-b]pyridin-5-yl)oxy)-4-(4-((4′-chloro-5,5-dimethyl-3,4,5,6-tetra-hydro-[1,1′-biphenyl]-2-yl)methyl)piperazin-1-yl)-N-((3-(2-(1,1-dioxidothiomorpholino)ethyl)-5-nitro-3,4-dihydro-2H-benzo[b] [1,4]oxazin-7-yl)sulfonyl)benzamide]	8 nM	1 nM
CC1(C)CCC(CN2CCN(c3ccc(C(=O)NS(=O)(=O)c4cc5c(c([N+](=O)[O-])c4)N[C@H](CN4CCP(C)(=O)CC4)CO5)c(Oc4cnc5[nH]ccc5c4)c3)CC2)=C(c2ccc(Cl)cc2)C1 [Example 2-154, (R)-2-((1H-pyrrolo[2,3-b]pyridin-5-yl)oxy)-4-(4-((4′-chloro-5,5-dimethyl-3,4,5,6-tetra-hydro-[1,1′-biphenyl]-2-yl)methyl)piperazin-1-yl)-N-((3-((4-methyl-4-oxido-1,4-aza-phosphinan-1-yl)methyl)-5-nitro-3,4-dihydro-2H-benzo[b][1,4]oxazin-7-yl)sulfonyl) benzamide]	201 nM	24 nM
CC1(C)CCC(CN2CCN(c3ccc(C(=O)NS(=O)(=O)c4cc5c(c([N+](=O)[O-])c4)N[C@H](CCN4CCP(C)(=O)CC4)CO5)c(Oc4cnc5[nH]ccc5c4)c3)CC2)=C(c2ccc(Cl)cc2)C1 [Example 2-155, (R)-2-((1H-pyrrolo[2,3-b]pyridin-5-yl)oxy)-4-(4-((4′-chloro-5,5-dimethyl-3,4,5,6-tetra-hydro-[1,1′-biphenyl]-2-yl)methyl)piperazin-1-yl)-N-((3-(2-(4-methyl-4-oxido-1,4-aza-phosphinan-1-yl)ethyl)-5-nitro-3,4-dihydro-2H-benzo[b][1,4]oxazin-7-yl)sulfonyl) benzamide]	459 nM	66 nM
CC1(C)CCC(CN2CCN(c3ccc(C(=O)NS(=O)(=O)c4cc5c(c([N+](=O)[O-])c4)N[C@H](Cc4ccccc4)CO5)c(Oc4cnc5[nH]ccc5c4)c3)CC2)=C(c2ccc(Cl)cc2)C1 [Example 2-156, (R)-2-((1H-pyrrolo[2,3-b]pyridin-5-yl)oxy)-N-((3-benzyl-5-nitro-3,4-dihdyro-2H-benzo[b][1,4]oxazin-7-yl)sulfonyl)-4-(4-((4′-chloro-5,5-dimethyl-3,4,5,6-tetrahydro-[1,1′-biphenyl]-2-yl)methyl)piperazin-1-yl)benza-mide]	6 nM	19 nM
CC1(C)CCC(CN2CCN(c3ccc(C(=O)NS(=O)(=O)c4cc5c(c([N+](=O)[O-])c4)N[C@H](Cc4ccccc4F)CO5)c(Oc4cnc5[nH]ccc5c4)c3)CC2)=C(c2ccc(Cl)cc2)C1 [Example 2-157, (R)-2-((1H-pyrrolo[2,3-b]pyridin-5-yl)oxy)-4-(4-((4′-chloro-5,5-dimethyl-3,4,5,6-tetra-hydro-[1,1′-biphenyl]-2-yl)methyl)piperazin-1-yl)-N-((3-(2-fluorobenzyl)-5-nitro-3,4-dihydro-2H-benzo[b][1,4]oxazin-7-yl)sulfo-nyl)benzamide]	39 nM	10 nM
CC1(C)CCC(CN2CCN(c3ccc(C(=O)NS(=O)(=O)c4cc5c(c([N+](=O)[O-])c4)N[C@H](Cc4ccc(F)cc4)CO5)c(Oc4cnc5[nH]ccc5c4)c3)CC2)=C(c2ccc(Cl)cc2)C1 [Example 2-158, (R)-2-((1H-pyrrolo[2,3-b]pyridin-5-yl)oxy)-4-(4-((4′-chloro-5,5-dimethyl-3,4,5,6-tetra-hydro-[1,1′-biphenyl]-2-yl)methyl)piperazin-1-yl)-N-((3-(4-fluorobenzyl)-5-nitro-3,4-dihydro-2H-benzo[b][1,4]oxazin-7-yl)sulfo-nyl)benzamide]	135 nM	43 nM
CC1(C)CCC(CN2CCN(c3ccc(C(=O)NS(=O)(=O)c4cc5c(c([N+](=O)[O-])c4)N[C@H](Cc4ccccc4Cl)CO5)c(Oc4cnc5[nH]ccc5c4)c3)CC2)=C(c2ccc(Cl)cc2)C1 [Example 2-159, (R)-2-((1H-pyrrolo[2,3-b]pyridin-5-yl)oxy)-4-(4-((4′-chloro-5,5-dimethyl-3,4,5,6-tetra-hydro-[1,1′-biphenyl]-2-yl)methyl)piperazin-1-yl)-N-((3-(2-chlorobenzyl)-5-nitro-3,4-dihydro-2H-benzo[b][1,4]oxazin-7-yl)sulfo-nyl)benzamide]	47 nM	29 nM
